Measurements reported in patent US9956204B2, “Composition for exterminating scuticociliates in fish including mebendazole” (NATIONAL INSTITUTE OF FISHERIES SCIENCE, priority 2016, dated 2018).

Tests used:
scuticociliates [1] = assay: Scuticociliates extermination effect of candidate substances in MEM medium; assay type: cell-based; conditions: MEM medium
Method: CHSE-214 cell line into which scuticociliates were inoculated was cultured in advance. The CHSE-214 cell line was cultured in an incubator using an MEM medium at 22° C. Scuticociliates inoculated into the cell line proliferated for 3 days by which the number reaches to be capable of analyzing in vitro anti-scuticociliates effect. Scuticociliates that feed on the cell line and sufficiently grow were mixed with the candidate substance and the activity of scuticociliates was measured.
In order to analyze the antiparasitic activity of the above 19 types of candidate substances of scuticociliates extermination drugs, scuticociliates were cultured for 3 days, and 100 μl (1×10^5) was dispensed into each well of 96 wells. The candidate substances were diluted by each concentration and the final volume was dispensed into 100 μl. Thereafter, the two were mixed and finally made into 200 μl.

scuticociliates [2] = assay: Scuticociliates extermination effect of candidate substances in seawater medium; assay type: cell-based; conditions: seawater medium, 4 hour
Method: For this, scuticociliates were cultured in CHSE-214 cell line (using MEM medium), and then scuticociliates were collected and centrifuged with sterilized seawater or artificial seawater (20‰) to replace them with a seawater medium. Each of 100 μl (1×10^5) was dispensed into each well of 96 wells, followed by further culture for 30 minutes. The candidate substances diluted in seawater to have a volume of 100 μl per each concentration were mixed with scuticociliates to have the final volume of 200 μl and cultured for 4 hour.

SMILES	Survival or Death of scuticociliates (activity and shape, microscope) (scuticociliates [1]; Dosage 10 ppm)	Survival or Death of scuticociliates (activity and shape, microscope) (scuticociliates [1]; Dosage 50 ppm)	Survival or Death of scuticociliates (activity and shape, microscope) (scuticociliates [1]; Dosage 100 ppm)	Survival or Death of scuticociliates (activity and shape, microscope) (scuticociliates [1]; Dosage 200 ppm)	Survival or Death of scuticociliates (activity and shape, microscope) (scuticociliates [1]; Dosage 400 ppm)	Survival or Death of scuticociliates (activity and shape, microscope) (scuticociliates [1]; Dosage 500 ppm)	Survival or Death of scuticociliates (activity and shape, microscope) (scuticociliates [2]; Dosage 500 ppm)	Survival or Death of scuticociliates (activity and shape, microscope) (scuticociliates [2]; Dosage 800 ppm)	Survival or Death of scuticociliates (activity and shape, microscope) (scuticociliates [2]; Dosage 900 ppm)	Survival or Death of scuticociliates (activity and shape, microscope) (scuticociliates [2]; Dosage 1000 ppm)	Survival or Death of scuticociliates (activity and shape, microscope) (scuticociliates [2]; Dosage 1500 ppm)	Survival or Death of scuticociliates (activity and shape, microscope) (scuticociliates [1]; Dosage 600 ppm)	Survival or Death of scuticociliates (activity and shape, microscope) (scuticociliates [1]; Dosage 700 ppm)	Survival or Death of scuticociliates (activity and shape, microscope) (scuticociliates [1]; Dosage 800 ppm)	Survival or Death of scuticociliates (activity and shape, microscope) (scuticociliates [1]; Dosage 900 ppm)	Survival or Death of scuticociliates (activity and shape, microscope) (scuticociliates [1]; Dosage 1000 ppm)	Survival or Death of scuticociliates (activity and shape, microscope) (scuticociliates [2]; Dosage 50 ppm)	Survival or Death of scuticociliates (activity and shape, microscope) (scuticociliates [2]; Dosage 100 ppm)	Survival or Death of scuticociliates (activity and shape, microscope) (scuticociliates [2]; Dosage 600 ppm)	Survival or Death of scuticociliates (activity and shape, microscope) (scuticociliates [2]; Dosage 700 ppm)	also measured
CC[C@H](C)[C@H]1O[C@]2(C=C[C@@H]1C)C[C@@H]1C[C@@H](C/C=C(\C)[C@@H](O[C@H]3C[C@H](OC)[C@@H](O[C@H]4C[C@H](OC)[C@@H](O)[C@H](C)O4)[C@H](C)O3)[C@@H](C)/C=C/C=C3\CO[C@@H]4[C@H](O)C(C)=C[C@@H](C(=O)O1)[C@]34O)O2 [Abamectin]	Survival	Survival	Survival	Δ	Death	Death	Survival	Death	Death	Death	Death	–	–	–	–	–	–	–	–	–	Survival or Death of scuticociliates (activity and shape, microscope) (scuticociliates [1]; Dosage 20 ppm): Survival; Survival or Death of scuticociliates (activity and shape, microscope) (scuticociliates [1]; Dosage 150 ppm): Survival; Survival or Death of scuticociliates (activity and shape, microscope) (scuticociliates [2]; Dosage 2000 ppm): Death
CCCSc1ccc2nc(NC(=O)OC)[nH]c2c1 [Albendazole]	Survival	Survival	Survival	Survival	Survival	Survival	Survival	Δ	Death	Death	–	Survival	Survival	Δ	Death	Death	Survival	Survival	Survival	Survival	Survival or Death of scuticociliates (activity and shape, microscope) (scuticociliates [1]; Dosage 300 ppm): Survival; Survival or Death of scuticociliates (activity and shape, microscope) (scuticociliates [2]; Dosage 10 ppm): Survival; Survival or Death of scuticociliates (activity and shape, microscope) (scuticociliates [2]; Dosage 200 ppm): Survival; Survival or Death of scuticociliates (activity and shape, microscope) (scuticociliates [2]; Dosage 300 ppm): Survival; Survival or Death of scuticociliates (activity and shape, microscope) (scuticociliates [2]; Dosage 400 ppm): Survival
O=C(OCc1ccccc1)c1ccccc1 [Benzyl benzonate]	Survival	Survival	Survival	Survival	–	Survival	Δ	Death	–	–	–	Survival	–	Δ	–	Δ	Survival	Survival	Death	Death	–
Nc1cc(C(Cl)=C(Cl)Cl)c(S(N)(=O)=O)cc1S(N)(=O)=O [Clorsulon]	–	–	–	–	–	Survival	Survival	–	–	Survival	Death	–	Survival	Survival	Δ	Δ	Survival	–	–	–	Survival or Death of scuticociliates (activity and shape, microscope) (scuticociliates [1]; Dosage 2000 ppm): Death; Survival or Death of scuticociliates (activity and shape, microscope) (scuticociliates [1]; Dosage 4000 ppm): Death; Survival or Death of scuticociliates (activity and shape, microscope) (scuticociliates [2]; Dosage 250 ppm): Survival; Survival or Death of scuticociliates (activity and shape, microscope) (scuticociliates [2]; Dosage 1200 ppm): Survival; Survival or Death of scuticociliates (activity and shape, microscope) (scuticociliates [2]; Dosage 1400 ppm): Survival
CC1(C)[C@H](C(=O)O[C@H](C#N)c2cccc(Oc3ccccc3)c2)[C@@H]1C=C(Br)Br [Deltamethrin]	–	–	–	–	–	Survival	Survival	–	–	Survival	Death	Survival	Survival	Survival	Survival	Δ	–	–	–	–	Survival or Death of scuticociliates (activity and shape, microscope) (scuticociliates [1]; Dosage 2000 ppm): Death; Survival or Death of scuticociliates (activity and shape, microscope) (scuticociliates [1]; Dosage 5000 ppm): Death; Survival or Death of scuticociliates (activity and shape, microscope) (scuticociliates [2]; Dosage 250 ppm): Survival; Survival or Death of scuticociliates (activity and shape, microscope) (scuticociliates [2]; Dosage 1200 ppm): Death; Survival or Death of scuticociliates (activity and shape, microscope) (scuticociliates [2]; Dosage 1400 ppm): Death
COC(=O)Nc1nc2ccc(Sc3ccccc3)cc2[nH]1 [Fenbendazole]	Survival	Survival	Survival	Survival	Survival	Survival	Survival	Δ	Δ	Death	–	Survival	Survival	Δ	Δ	Death	Survival	Survival	Survival	Survival	Survival or Death of scuticociliates (activity and shape, microscope) (scuticociliates [1]; Dosage 300 ppm): Survival; Survival or Death of scuticociliates (activity and shape, microscope) (scuticociliates [2]; Dosage 10 ppm): Survival; Survival or Death of scuticociliates (activity and shape, microscope) (scuticociliates [2]; Dosage 200 ppm): Survival; Survival or Death of scuticociliates (activity and shape, microscope) (scuticociliates [2]; Dosage 300 ppm): Survival; Survival or Death of scuticociliates (activity and shape, microscope) (scuticociliates [2]; Dosage 400 ppm): Survival
